In the oligonucleotide strings, read from the 5' end, every base follows the letter of its sugar. An asterisk marks phosphorothioate; unmarked linkages are phosphodiester. Other units and linkages are bracketed, terminal groups are in braces. A string of capitals states the bases alone. e = 2'-O-(2-methoxyethyl) (MOE); [5mC] = 5-methylcytosine; d = 2'-deoxy (DNA)
Tested on: human Factor 7 mRNA
Assay: Antisense inhibition of human Factor 7 mRNA in HepB3 cells, lipofectin, 50 nM, real-time RT-PCR
Format: cell-based
Conditions: for % Inhibition (human Factor 7 mRNA): 50 nM, ~24 h
Procedure, shortened: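 After transfection of wells containing 4,000 cells, treatment ran for approximately 24 h. RIBOGREEN®-measured total RNA served for normalisation, and inhibition was calculated as a percentage of untreated control.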

[1] = Example 1, HepB3 cells, lipofectin, relative to untreated control cells
[2] = HepB3 cells, gapmers targeted to nucleobases 11830 to 11869 of SEQ ID NO: 1 (Table 9)
[3] = HepB3 cells, lipofectin, 50 nM antisense oligonucleotide, approximately 24 hours, primer probe set RTS 2927, relative to untreated control
[4] = HepB3 cells, gapmers targeted to nucleobases 14707 to 14732 of SEQ ID NO: 1 (Table 11)
[5] = Example 6 microwalk, nucleobases 15098 to 15122 of SEQ ID NO: 1, HepB3, lipofectin
[6] = HepB3 cells, gapmers targeted to nucleobases 13760 to 13789 of SEQ ID NO: 1 (Table 10)
[7] = Example 4, HepB3 cells, lipofectin, relative to untreated control

407953 (antisense eA*e[5mC]*eA*eT*e[5mC]*d[5mC]*dA*dA*dT*dT*d[5mC]*d[5mC]*dA*d[5mC]*dA*eG*eG*eA*eT*e[5mC]) [compound 407953]
% Inhibition (human Factor 7 mRNA) [1]: 20%

422239 (antisense eG*eA*d[5mC]*dA*dA*dT*dG*dG*dT*d[5mC]*dA*dG*dG*dG*d[5mC]*eT*eG*eG*eT*eT) [compound 422239]
% Inhibition of human Factor 7 mRNA levels [2]: 67%

407922 (antisense eT*e[5mC]*eG*eA*e[5mC]*dG*d[5mC]*dA*dG*d[5mC]*d[5mC]*dT*dT*dG*dG*e[5mC]*eT*eT*eT*e[5mC]) [compound 407922]
% Inhibition (human Factor 7 mRNA) [1]: 82%

416551 (antisense e[5mC]*eA*eG*eA*eA*dA*d[5mC]*dA*d[5mC]*d[5mC]*d[5mC]*dA*dT*d[5mC]*d[5mC]*eT*e[5mC]*eT*eG*eA) [compound 416551]
% Inhibition of human Factor 7 mRNA levels [3]: 19%

407616 (antisense eT*eG*e[5mC]*eA*eG*dG*dA*d[5mC]*dA*d[5mC]*d[5mC]*d[5mC]*d[5mC]*dG*dT*e[5mC]*eT*eG*e[5mC]*e[5mC]) [compound 407616]
% Inhibition (human Factor 7 mRNA) [1]: 64%

416496 (antisense e[5mC]*eA*eA*e[5mC]*eA*d[5mC]*dT*dT*d[5mC]*dA*dA*dA*dT*dA*d[5mC]*eG*eA*eT*e[5mC]*eT) [compound 416496]
% Inhibition of human Factor 7 mRNA levels [3]: 0%

422280 (antisense e[5mC]*eA*dG*d[5mC]*d[5mC]*dT*dG*dA*dG*dG*d[5mC]*d[5mC]*dA*dG*d[5mC]*eA*eG*eA*eT*e[5mC]) [compound 422280]
% Inhibition of human Factor 7 mRNA levels [4]: 52%

422135 (antisense eA*eG*e[5mC]*eA*e[5mC]*dA*d[5mC]*dA*dT*dG*dG*dA*dG*dT*d[5mC]*eA*eG*e[5mC]*eA*eT) [compound 422135]
% Inhibition (human Factor 7 mRNA) [5]: 53%

407632 (antisense eT*e[5mC]*e[5mC]*eG*eT*dT*d[5mC]*dG*dG*dG*d[5mC]*dA*dG*dG*d[5mC]*eA*eG*eA*eG*eG) [compound 407632]
% Inhibition (human Factor 7 mRNA) [1]: 46%

416465 (antisense e[5mC]*eA*e[5mC]*eT*eG*dT*d[5mC]*d[5mC]*d[5mC]*d[5mC]*d[5mC]*dT*dT*dG*d[5mC]*eA*eG*eG*eA*eG) [compound 416465]
% Inhibition of human Factor 7 mRNA levels [3]: 51%

407614 (antisense eT*eG*e[5mC]*eA*eG*dT*dA*d[5mC]*dT*dG*d[5mC]*dT*d[5mC]*dA*d[5mC]*eA*eG*e[5mC]*e[5mC]*eG) [compound 407614]
% Inhibition (human Factor 7 mRNA) [1]: 78%

407666 (antisense eT*e[5mC]*e[5mC]*e[5mC]*e[5mC]*dA*dG*dG*dA*d[5mC]*dA*dT*d[5mC]*dT*dG*eG*eA*eA*e[5mC]*eT) [compound 407666]
% Inhibition (human Factor 7 mRNA) [1]: 52%

422176 (antisense e[5mC]*e[5mC]*eG*d[5mC]*d[5mC]*dG*dG*d[5mC]*dT*d[5mC]*dT*dG*d[5mC]*dT*d[5mC]*dA*dT*e[5mC]*e[5mC]*e[5mC]) [compound 422176]
% Inhibition of human Factor 7 mRNA levels [6]: 52%

416481 (antisense eA*eG*eA*eT*eG*dA*dT*dA*dA*dT*dG*dG*dA*dT*dA*eA*eG*eA*eA*e[5mC]) [compound 416481]
% Inhibition of human Factor 7 mRNA levels [3]: 15%

407959 (antisense eG*e[5mC]*eA*eG*eG*dG*dA*dT*dG*dG*d[5mC]*dA*dT*d[5mC]*dG*eA*eG*eT*e[5mC]*e[5mC]) [compound 407959]
% Inhibition (human Factor 7 mRNA) [1]: 0%

422186 (antisense eG*eG*eA*dA*dG*dA*dA*dG*dG*dG*dA*d[5mC]*dG*dG*dA*dA*dG*eG*eT*eG) [compound 422186]
% Inhibition (human Factor 7 mRNA) [7]: 14%

422187 (antisense e[5mC]*eG*eG*dA*dA*dG*dA*dA*dG*dG*dG*dA*d[5mC]*dG*dG*dA*dA*eG*eG*eT) [compound 422187]
% Inhibition (human Factor 7 mRNA) [7]: 28%

422117 (antisense eG*eG*eA*eA*eG*dA*dA*dG*dG*dG*dA*d[5mC]*dG*dG*dA*eA*eG*eG*eT*eG) [compound 422117]
% Inhibition (human Factor 7 mRNA) [7]: 1%

416424 (antisense eG*eA*eG*eA*e[5mC]*d[5mC]*dA*dT*dG*dA*dT*dG*dA*dA*dA*eT*e[5mC]*eT*e[5mC]*eT) [compound 416424]
% Inhibition of human Factor 7 mRNA levels [3]: 27%

407603 (antisense eT*eA*eA*eG*eA*dA*dA*dT*d[5mC]*d[5mC]*dA*dG*dA*dA*d[5mC]*eA*eG*e[5mC]*eT*eT) [compound 407603]
% Inhibition (human Factor 7 mRNA) [1]: 54%

416489 (antisense eG*eT*eG*e[5mC]*eA*dG*d[5mC]*dT*dT*dG*d[5mC]*d[5mC]*dA*dG*dG*eT*e[5mC]*e[5mC]*eT*e[5mC]) [compound 416489]
% Inhibition of human Factor 7 mRNA levels [3]: 38%

416447 (antisense e[5mC]*eA*eT*eG*eG*dA*dT*dA*dT*dT*d[5mC]*dA*dA*d[5mC]*dT*eG*eT*eG*eG*eG) [compound 416447]
% Inhibition of human Factor 7 mRNA levels [3]: 17%

422163 (antisense eA*eG*eA*d[5mC]*dA*dA*dT*dG*dG*dT*d[5mC]*dA*dG*dG*dG*d[5mC]*dT*eG*eG*eT) [compound 422163]
% Inhibition of human Factor 7 mRNA levels [2]: 56%

407941 (antisense eG*eA*eG*eA*e[5mC]*dG*d[5mC]*dA*dG*d[5mC]*d[5mC]*dG*dT*dT*dT*eA*eT*eT*eG*eT) [compound 407941]
% Inhibition (human Factor 7 mRNA) [1]: 65%

407611 (antisense eT*e[5mC]*eT*e[5mC]*eA*d[5mC]*dA*dG*dT*dT*d[5mC]*d[5mC]*dG*dG*d[5mC]*e[5mC]*e[5mC]*eT*e[5mC]*eG) [compound 407611]
% Inhibition (human Factor 7 mRNA) [1]: 82%

416428 (antisense e[5mC]*eT*eG*eG*eG*dT*dT*dA*d[5mC]*dG*dA*dA*dG*dA*d[5mC]*eT*eG*e[5mC]*eA*eG) [compound 416428]
% Inhibition of human Factor 7 mRNA levels [3]: 11%

416506 (antisense e[5mC]*eT*eT*eT*eA*dA*dA*dA*dT*d[5mC]*dA*dG*dT*dT*dT*e[5mC]*eA*e[5mC]*eA*e[5mC]) [compound 416506]
% Inhibition of human Factor 7 mRNA levels [3]: 18%

416543 (antisense eT*e[5mC]*e[5mC]*eT*eG*d[5mC]*dG*dA*dG*dT*dG*dG*dG*dA*dG*eT*eT*eG*eG*eA) [compound 416543]
% Inhibition of human Factor 7 mRNA levels [3]: 0%

407891 (antisense e[5mC]*eA*eT*eG*eG*dA*d[5mC]*dT*dT*dG*dA*dG*dG*d[5mC]*dA*e[5mC]*eA*e[5mC]*eT*eG) [compound 407891]
% Inhibition (human Factor 7 mRNA) [1]: 66%

422178 (antisense eA*e[5mC]*e[5mC]*d[5mC]*dG*d[5mC]*d[5mC]*dG*dG*d[5mC]*dT*d[5mC]*dT*dG*d[5mC]*dT*d[5mC]*eA*eT*e[5mC]) [compound 422178]
% Inhibition of human Factor 7 mRNA levels [6]: 37%

407957 (antisense eG*eG*e[5mC]*e[5mC]*eT*dG*dG*dG*dA*dA*d[5mC]*dT*dT*dG*d[5mC]*eA*eT*eT*eT*eA) [compound 407957]
% Inhibition (human Factor 7 mRNA) [1]: 52%

422153 (antisense e[5mC]*eA*eT*dG*d[5mC]*dA*dT*dG*dG*dT*dG*dA*dT*dG*d[5mC]*dT*dT*e[5mC]*eT*eG) [compound 422153]
% Inhibition of human Factor 7 mRNA levels (HepB3 cells, gapmers targeted to nucleobases 15188 to 15211 of SEQ ID NO: 1 (Table 13)): 67%

416542 (antisense e[5mC]*eA*eG*eG*eG*dT*dG*d[5mC]*d[5mC]*d[5mC]*dA*dT*d[5mC]*d[5mC]*dT*eA*eG*eT*e[5mC]*eA) [compound 416542]
% Inhibition of human Factor 7 mRNA levels [3]: 56%

416490 (antisense eA*e[5mC]*eT*e[5mC]*eA*dG*d[5mC]*dA*dA*dG*dA*dG*dT*dG*d[5mC]*eA*eG*e[5mC]*eT*eT) [compound 416490]
% Inhibition of human Factor 7 mRNA levels [3]: 33%

422258 (antisense eG*e[5mC]*d[5mC]*dA*d[5mC]*d[5mC]*d[5mC]*dG*d[5mC]*d[5mC]*dG*dG*d[5mC]*dT*d[5mC]*eT*eG*e[5mC]*eT*e[5mC]) [compound 422258]
% Inhibition of human Factor 7 mRNA levels [6]: 66%

407894 (antisense eG*eT*eT*e[5mC]*e[5mC]*dG*dG*d[5mC]*d[5mC]*d[5mC]*dT*d[5mC]*dG*dA*dA*eG*eG*e[5mC]*eA*eG) [compound 407894]
% Inhibition (human Factor 7 mRNA) [1]: 77%

422220 (antisense e[5mC]*e[5mC]*e[5mC]*dG*dA*dG*dT*dT*d[5mC]*dT*dG*d[5mC]*dA*dG*dG*dA*dG*e[5mC]*eG*eG) [compound 422220]
% Inhibition of human Factor 7 mRNA levels (HepB3 cells, gapmers (5-10-5, 3-14-3, 2-13-5 MOE) targeted to nucleobases 4868 to 4899 of SEQ ID NO: 1): 59%

422173 (antisense e[5mC]*eT*eG*dG*d[5mC]*dT*dG*dA*dG*dG*dA*dG*dA*d[5mC]*dA*dA*dT*eG*eG*eT) [compound 422173]
% Inhibition of human Factor 7 mRNA levels [2]: 51%

422207 (antisense e[5mC]*eA*e[5mC]*dA*d[5mC]*dA*dT*dG*dG*dA*dG*dT*d[5mC]*dA*dG*d[5mC]*dA*eT*e[5mC]*eG) [compound 422207]
% Inhibition (human Factor 7 mRNA) [5]: 41%

422192 (antisense eG*eA*eG*d[5mC]*dG*d[5mC]*dG*dG*dA*dA*dG*dA*dA*dG*dG*dG*dA*e[5mC]*eG*eG) [compound 422192]
% Inhibition (human Factor 7 mRNA) [7]: 27%

422205 (antisense eA*eG*e[5mC]*dA*dG*d[5mC]*d[5mC]*dT*dG*dA*dG*dG*d[5mC]*d[5mC]*dA*dG*d[5mC]*eA*eG*eA) [compound 422205]
% Inhibition of human Factor 7 mRNA levels [4]: 63%

407908 (antisense e[5mC]*e[5mC]*e[5mC]*e[5mC]*eA*dG*d[5mC]*d[5mC]*dG*d[5mC]*dT*dG*dA*d[5mC]*d[5mC]*eA*eA*eT*eG*eA) [compound 407908]
% Inhibition (human Factor 7 mRNA) [1]: 47%

— patent US20120214862A1, “MODULATION OF FACTOR 7 EXPRESSION” (ISIS Pharmaceuticals, Inc., priority 2009, published 2012)
